Results: ChEMBL document CHEMBL3991601, “The target landscape of clinical kinase drugs” (Science, 2017)
Activity calls are given as the source filed them. Rule as the data show it, for most assays here: actives have a measured Kd and inactives only a lower limit.

Key:
[1] = biological target: T1, ATP-dependent RNA helicase DDX1 (Homo sapiens, UniProt Q92499)
T1 sequence (Q92499 whole entry): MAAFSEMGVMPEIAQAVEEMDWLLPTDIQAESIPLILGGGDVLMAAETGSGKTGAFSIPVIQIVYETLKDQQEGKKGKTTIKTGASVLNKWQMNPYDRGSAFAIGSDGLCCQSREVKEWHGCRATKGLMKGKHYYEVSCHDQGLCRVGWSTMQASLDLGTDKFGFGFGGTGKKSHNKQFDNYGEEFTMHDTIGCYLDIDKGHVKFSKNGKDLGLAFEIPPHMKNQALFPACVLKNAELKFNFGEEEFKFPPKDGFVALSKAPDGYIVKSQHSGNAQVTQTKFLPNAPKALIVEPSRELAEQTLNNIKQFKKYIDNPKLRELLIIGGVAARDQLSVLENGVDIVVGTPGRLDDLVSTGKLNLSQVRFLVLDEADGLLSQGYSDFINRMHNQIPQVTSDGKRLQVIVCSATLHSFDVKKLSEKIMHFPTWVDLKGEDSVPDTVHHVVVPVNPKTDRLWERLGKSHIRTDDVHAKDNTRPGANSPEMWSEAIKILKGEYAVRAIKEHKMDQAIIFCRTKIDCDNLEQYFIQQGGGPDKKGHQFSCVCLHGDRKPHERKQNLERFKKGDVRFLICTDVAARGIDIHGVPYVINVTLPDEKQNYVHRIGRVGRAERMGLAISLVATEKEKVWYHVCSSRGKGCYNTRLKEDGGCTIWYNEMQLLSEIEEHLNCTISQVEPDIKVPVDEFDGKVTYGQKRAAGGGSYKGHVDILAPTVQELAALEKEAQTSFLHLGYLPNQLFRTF

[2] = biological target: BMP-2-inducible protein kinase (Homo sapiens, UniProt Q9NSY1)
BMP-2-inducible protein kinase, sequence (Q9NSY1 whole entry): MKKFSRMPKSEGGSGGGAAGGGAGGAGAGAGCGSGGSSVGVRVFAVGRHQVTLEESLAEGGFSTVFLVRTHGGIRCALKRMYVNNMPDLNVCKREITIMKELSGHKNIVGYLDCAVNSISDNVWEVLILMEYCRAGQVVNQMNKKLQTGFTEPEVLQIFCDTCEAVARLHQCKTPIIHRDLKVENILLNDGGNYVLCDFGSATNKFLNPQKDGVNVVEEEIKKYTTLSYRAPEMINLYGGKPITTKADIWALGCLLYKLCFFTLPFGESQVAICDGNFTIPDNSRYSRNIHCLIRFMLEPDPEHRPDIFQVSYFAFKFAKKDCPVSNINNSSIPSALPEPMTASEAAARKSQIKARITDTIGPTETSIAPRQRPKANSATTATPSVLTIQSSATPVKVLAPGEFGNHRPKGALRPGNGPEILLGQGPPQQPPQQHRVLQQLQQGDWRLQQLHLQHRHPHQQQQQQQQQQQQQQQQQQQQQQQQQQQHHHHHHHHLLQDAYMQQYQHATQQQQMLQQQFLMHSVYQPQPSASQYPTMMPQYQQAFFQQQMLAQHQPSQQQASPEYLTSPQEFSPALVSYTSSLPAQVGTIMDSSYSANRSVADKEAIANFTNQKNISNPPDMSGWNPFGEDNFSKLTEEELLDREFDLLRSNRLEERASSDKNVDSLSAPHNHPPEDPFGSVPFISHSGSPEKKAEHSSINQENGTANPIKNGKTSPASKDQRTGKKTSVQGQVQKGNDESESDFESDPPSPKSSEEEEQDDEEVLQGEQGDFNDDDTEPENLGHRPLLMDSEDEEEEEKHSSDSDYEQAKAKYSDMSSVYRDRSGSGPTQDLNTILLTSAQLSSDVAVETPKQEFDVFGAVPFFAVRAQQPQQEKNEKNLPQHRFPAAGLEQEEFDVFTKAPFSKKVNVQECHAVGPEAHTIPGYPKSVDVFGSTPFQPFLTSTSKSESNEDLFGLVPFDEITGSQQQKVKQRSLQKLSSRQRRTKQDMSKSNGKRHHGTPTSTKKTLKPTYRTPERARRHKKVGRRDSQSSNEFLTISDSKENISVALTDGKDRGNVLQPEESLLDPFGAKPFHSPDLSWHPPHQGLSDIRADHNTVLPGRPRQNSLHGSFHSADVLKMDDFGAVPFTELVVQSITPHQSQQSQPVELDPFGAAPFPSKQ

[3] = biological target: Tyrosine-protein kinase JAK1 (Homo sapiens, UniProt P23458)
Tyrosine-protein kinase JAK1, sequence (P23458 whole entry): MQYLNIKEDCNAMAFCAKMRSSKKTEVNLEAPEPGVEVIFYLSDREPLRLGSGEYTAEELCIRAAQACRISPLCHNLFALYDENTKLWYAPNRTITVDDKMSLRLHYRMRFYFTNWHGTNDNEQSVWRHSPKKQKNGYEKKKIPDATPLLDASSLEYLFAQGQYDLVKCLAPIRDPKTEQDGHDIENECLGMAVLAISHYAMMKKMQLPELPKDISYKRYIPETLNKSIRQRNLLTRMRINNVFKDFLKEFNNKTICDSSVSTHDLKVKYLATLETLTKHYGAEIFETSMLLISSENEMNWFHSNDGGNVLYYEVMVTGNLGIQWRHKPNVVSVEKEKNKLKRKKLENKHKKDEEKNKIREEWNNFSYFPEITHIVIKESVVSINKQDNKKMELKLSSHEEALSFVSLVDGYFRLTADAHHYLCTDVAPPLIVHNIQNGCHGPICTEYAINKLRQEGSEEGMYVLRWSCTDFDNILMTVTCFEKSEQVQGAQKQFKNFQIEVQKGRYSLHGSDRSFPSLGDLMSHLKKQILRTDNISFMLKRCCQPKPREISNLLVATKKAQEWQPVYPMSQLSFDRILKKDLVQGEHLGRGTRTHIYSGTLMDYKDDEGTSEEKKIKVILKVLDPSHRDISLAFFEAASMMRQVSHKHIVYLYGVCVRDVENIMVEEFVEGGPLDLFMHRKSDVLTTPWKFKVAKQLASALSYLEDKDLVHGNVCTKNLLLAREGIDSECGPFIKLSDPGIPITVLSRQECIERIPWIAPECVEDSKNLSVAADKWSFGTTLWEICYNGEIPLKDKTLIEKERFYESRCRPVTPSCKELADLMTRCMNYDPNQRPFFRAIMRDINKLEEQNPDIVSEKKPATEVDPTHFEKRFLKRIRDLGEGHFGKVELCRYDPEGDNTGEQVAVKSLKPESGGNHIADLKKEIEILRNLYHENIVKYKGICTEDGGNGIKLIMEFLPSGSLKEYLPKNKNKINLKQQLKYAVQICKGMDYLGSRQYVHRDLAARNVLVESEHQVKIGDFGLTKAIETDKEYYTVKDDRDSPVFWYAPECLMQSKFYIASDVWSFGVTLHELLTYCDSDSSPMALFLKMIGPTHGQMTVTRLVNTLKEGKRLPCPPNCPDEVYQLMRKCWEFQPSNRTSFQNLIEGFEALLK

[4] = biological target: Dual specificity testis-specific protein kinase 1 (Homo sapiens, UniProt Q15569)
Dual specificity testis-specific protein kinase 1, sequence (Q15569 whole entry): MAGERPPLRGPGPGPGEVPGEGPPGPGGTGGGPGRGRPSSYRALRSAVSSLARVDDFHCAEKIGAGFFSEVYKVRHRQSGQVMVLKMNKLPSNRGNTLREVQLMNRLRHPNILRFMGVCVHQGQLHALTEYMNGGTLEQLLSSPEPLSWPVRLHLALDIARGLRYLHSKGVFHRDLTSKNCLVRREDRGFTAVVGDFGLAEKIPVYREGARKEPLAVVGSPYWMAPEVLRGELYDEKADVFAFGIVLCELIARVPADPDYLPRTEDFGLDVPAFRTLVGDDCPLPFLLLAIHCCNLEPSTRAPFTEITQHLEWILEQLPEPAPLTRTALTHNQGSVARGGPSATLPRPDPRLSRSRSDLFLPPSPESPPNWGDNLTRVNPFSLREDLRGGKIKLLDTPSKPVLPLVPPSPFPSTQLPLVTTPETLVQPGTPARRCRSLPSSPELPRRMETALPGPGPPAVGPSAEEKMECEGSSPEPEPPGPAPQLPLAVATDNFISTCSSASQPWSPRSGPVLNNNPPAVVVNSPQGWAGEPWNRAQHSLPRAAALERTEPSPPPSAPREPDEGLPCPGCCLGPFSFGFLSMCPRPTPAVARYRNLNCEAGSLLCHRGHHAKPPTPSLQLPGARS

Ephrin type-A receptor 5 = Ephrin type-A receptor 5 (Homo sapiens, UniProt P54756)
Ephrin type-A receptor 5, sequence (P54756 whole entry): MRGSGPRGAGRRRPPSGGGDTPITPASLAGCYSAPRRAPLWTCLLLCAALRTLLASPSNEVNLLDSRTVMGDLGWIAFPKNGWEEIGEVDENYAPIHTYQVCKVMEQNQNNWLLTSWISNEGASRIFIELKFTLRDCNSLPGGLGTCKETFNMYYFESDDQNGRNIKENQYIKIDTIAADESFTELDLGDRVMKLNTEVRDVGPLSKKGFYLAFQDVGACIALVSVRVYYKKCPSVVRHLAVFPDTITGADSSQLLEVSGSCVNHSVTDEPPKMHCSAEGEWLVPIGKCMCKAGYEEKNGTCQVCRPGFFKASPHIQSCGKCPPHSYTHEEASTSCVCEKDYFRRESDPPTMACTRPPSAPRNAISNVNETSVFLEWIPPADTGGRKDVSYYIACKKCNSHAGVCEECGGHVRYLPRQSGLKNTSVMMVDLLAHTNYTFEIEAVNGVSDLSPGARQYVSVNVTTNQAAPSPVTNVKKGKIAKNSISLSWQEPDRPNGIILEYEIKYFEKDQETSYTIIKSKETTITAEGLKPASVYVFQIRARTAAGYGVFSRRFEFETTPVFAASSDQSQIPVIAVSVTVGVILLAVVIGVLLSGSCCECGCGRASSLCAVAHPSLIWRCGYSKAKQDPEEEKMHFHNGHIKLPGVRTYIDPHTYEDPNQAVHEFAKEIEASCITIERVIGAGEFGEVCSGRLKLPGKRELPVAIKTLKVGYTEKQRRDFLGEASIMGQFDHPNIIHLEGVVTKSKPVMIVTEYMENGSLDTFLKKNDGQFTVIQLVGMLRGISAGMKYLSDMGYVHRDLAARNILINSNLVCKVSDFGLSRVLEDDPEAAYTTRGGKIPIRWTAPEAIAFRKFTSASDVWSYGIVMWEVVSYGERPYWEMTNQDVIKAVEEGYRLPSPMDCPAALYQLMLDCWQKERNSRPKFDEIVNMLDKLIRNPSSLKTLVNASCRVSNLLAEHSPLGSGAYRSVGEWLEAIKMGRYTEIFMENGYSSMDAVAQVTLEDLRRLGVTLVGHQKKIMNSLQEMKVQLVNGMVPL

[5] = biological target: Interleukin-1 receptor-associated kinase 1 (Homo sapiens, UniProt P51617)
[6] = biological target: Dual specificity mitogen-activated protein kinase kinase 2 (Homo sapiens, UniProt P36507)
Dual specificity mitogen-activated protein kinase kinase 2, sequence (P36507 whole entry): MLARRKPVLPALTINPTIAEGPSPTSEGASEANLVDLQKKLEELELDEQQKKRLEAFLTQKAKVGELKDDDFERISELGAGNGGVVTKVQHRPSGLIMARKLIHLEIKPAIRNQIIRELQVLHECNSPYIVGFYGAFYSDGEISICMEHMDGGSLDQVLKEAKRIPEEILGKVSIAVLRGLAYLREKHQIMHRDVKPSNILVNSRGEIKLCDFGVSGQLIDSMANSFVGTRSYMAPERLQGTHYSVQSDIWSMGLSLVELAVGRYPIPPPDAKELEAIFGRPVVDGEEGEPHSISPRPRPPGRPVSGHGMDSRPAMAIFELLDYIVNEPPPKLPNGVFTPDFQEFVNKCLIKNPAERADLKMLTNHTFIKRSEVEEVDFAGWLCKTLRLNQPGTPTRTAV

[7] = biological target: T2, Mitogen-activated protein kinase kinase kinase 3 (Homo sapiens, UniProt Q99759)
T2 sequence (Q99759 whole entry): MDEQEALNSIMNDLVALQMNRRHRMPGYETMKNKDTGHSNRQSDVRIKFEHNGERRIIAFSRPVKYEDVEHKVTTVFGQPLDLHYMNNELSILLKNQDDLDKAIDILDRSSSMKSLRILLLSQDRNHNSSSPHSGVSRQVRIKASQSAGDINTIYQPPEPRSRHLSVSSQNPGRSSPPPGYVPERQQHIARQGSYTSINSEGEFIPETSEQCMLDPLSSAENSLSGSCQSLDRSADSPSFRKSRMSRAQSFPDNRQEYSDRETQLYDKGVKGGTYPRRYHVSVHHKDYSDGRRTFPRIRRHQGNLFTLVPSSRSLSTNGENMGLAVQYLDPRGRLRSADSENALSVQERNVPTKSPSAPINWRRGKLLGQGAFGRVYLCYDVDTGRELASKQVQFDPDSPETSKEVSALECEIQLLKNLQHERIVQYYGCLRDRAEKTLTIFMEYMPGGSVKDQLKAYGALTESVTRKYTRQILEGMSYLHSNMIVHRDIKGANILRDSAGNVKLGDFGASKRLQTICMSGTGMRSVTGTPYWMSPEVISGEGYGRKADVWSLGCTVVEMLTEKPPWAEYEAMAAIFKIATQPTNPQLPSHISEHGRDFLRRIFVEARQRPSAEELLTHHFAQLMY

[8] = biological target: Serine/threonine-protein kinase PAK 2 (Homo sapiens, UniProt Q13177)
Serine/threonine-protein kinase PAK 2, sequence (Q13177 whole entry): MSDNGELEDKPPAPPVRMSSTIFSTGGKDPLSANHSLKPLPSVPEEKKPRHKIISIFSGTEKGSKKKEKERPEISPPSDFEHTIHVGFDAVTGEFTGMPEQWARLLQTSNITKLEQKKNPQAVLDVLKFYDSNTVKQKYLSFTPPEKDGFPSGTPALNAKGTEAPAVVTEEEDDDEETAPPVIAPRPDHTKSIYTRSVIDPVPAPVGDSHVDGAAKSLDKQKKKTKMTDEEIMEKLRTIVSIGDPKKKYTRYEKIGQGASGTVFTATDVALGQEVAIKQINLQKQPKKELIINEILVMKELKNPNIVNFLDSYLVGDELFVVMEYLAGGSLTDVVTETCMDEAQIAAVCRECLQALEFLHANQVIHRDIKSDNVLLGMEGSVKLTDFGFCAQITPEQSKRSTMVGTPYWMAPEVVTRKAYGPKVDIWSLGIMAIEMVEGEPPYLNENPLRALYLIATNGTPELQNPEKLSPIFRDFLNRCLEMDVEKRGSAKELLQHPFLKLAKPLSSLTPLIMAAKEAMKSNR
Also: in the data inactive means no Kd found up to 30 µM.

Structure (SMILES): Cn1cc(C2=C(c3cn(C4CCN(Cc5ccccn5)CC4)c4ccccc34)C(=O)NC2=O)c2ccccc21 [ENZASTAURIN]
- Kd [1]: > 30 µM (inactive)

Structure (SMILES): CC(C)(C)c1nc(-c2cccc(NS(=O)(=O)c3c(F)cccc3F)c2F)c(-c2ccnc(N)n2)s1 [DABRAFENIB]
- Kd [2]: > 30 µM (inactive)
- Kd [1]: > 30 µM (inactive)
- Kd [3]: > 30 µM (inactive)
- Kd [4]: > 30 µM (inactive)

Structure (SMILES): CCn1cc(-c2ccnc3[nH]c(-c4cccc(CN(C)C)c4)cc23)c(-c2ccc(NC(=O)N(C)C)cc2)n1 [GSK-1070916]
- Kd [1]: > 30 µM (inactive)
- Kd (Ephrin type-A receptor 5): > 30 µM (inactive)
- Kd [5]: > 30 µM (inactive)
- Kd [3]: > 30 µM (inactive)
- Kd [6]: > 30 µM (inactive)
- Kd [7]: > 30 µM (inactive)
- Kd [8]: > 30 µM (inactive)

Structure (SMILES): COc1cc(Nc2ncc3c(n2)-c2ccc(Cl)cc2C(c2c(F)cccc2OC)=NC3)ccc1C(=O)O [ALISERTIB]
- Kd [2]: > 30 µM (inactive)
- Kd [1]: > 30 µM (inactive)
- Kd (Ephrin type-A receptor 5): > 30 µM (inactive)
- Kd [3]: > 30 µM (inactive)
- Kd [7]: > 30 µM (inactive)
- Kd [8]: > 30 µM (inactive)
- Kd [4]: > 30 µM (inactive)

Structure (SMILES): N#CC[C@H](C1CCCC1)n1cc(-c2ncnc3[nH]ccc23)cn1 [RUXOLITINIB]
- Kd [1]: > 30 µM (inactive)

Structure (SMILES): CC(=O)NCC(=O)N1[C@@H]2CC[C@H]1c1ccc(Nc3ncc(C(F)(F)F)c(NC4CCC4)n3)cc12 [PF-03814735]
- Kd [2]: 0.015 µM (active)
- Kd [1]: > 30 µM (inactive)
- Kd (Ephrin type-A receptor 5): > 30 µM (inactive)
- Kd [7]: 0.246 µM (active)
- Kd [4]: > 30 µM (inactive)

Structure (SMILES): Cc1[nH]c(/C=C2\C(=O)Nc3ccccc32)c(C)c1CCC(=O)O [ORANTINIB]
- Kd [2]: 0.303 µM (active)
- Kd [1]: > 30 µM (inactive)
- Kd (Ephrin type-A receptor 5): > 30 µM (inactive)
- Kd [3]: > 30 µM (inactive)
- Kd [6]: 3.23 µM (active)
- Kd [7]: > 30 µM (inactive)
- Kd [8]: > 30 µM (inactive)
- Kd [4]: > 30 µM (inactive)

Structure (SMILES): CNC(=O)c1ccccc1Sc1ccc2c(/C=C/c3ccccn3)n[nH]c2c1 [AXITINIB]
- Kd [1]: > 30 µM (inactive)

Structure (SMILES): C[C@@H](Oc1cc(-n2cnc3ccc(CN4CCN(C)CC4)cc32)sc1C(N)=O)c1ccccc1C(F)(F)F [GSK-461364]
- Kd [1]: > 30 µM (inactive)

Structure (SMILES): CNC(=O)c1cc(Oc2ccc(NC(=O)Nc3cc(C(C)(C)C)nn3-c3ccc4ncccc4c3)c(F)c2)ccn1 [REBASTINIB]
- Kd [2]: > 30 µM (inactive)
- Kd [1]: > 30 µM (inactive)
- Kd (Ephrin type-A receptor 5): > 30 µM (inactive)
- Kd [3]: > 30 µM (inactive)
- Kd [6]: > 30 µM (inactive)
- Kd [7]: > 30 µM (inactive)
- Kd [8]: > 30 µM (inactive)
- Kd [4]: > 30 µM (inactive)

Structure (SMILES): O=C(NOCCO)c1cc(CN2OCCCC2=O)c(F)c(F)c1Nc1ccc(I)cc1F [RO-4987655]
- Kd [1]: > 30 µM (inactive)

Structure (SMILES): NC(=O)c1c(OCc2c(F)cc(Br)cc2F)nsc1NC(=O)NCCCCN1CCCC1 [OSI-632]
- Kd [2]: > 30 µM (inactive)
- Kd (Ephrin type-A receptor 5): > 30 µM (inactive)
- Kd [3]: > 30 µM (inactive)
- Kd [4]: 1.42 µM (active)

Structure (SMILES): O=C(Nc1c[nH]nc1-c1nc2cc(CN3CCOCC3)ccc2[nH]1)NC1CC1 [AT-9283]
- Kd [1]: > 30 µM (inactive)
- Kd (Ephrin type-A receptor 5): > 30 µM (inactive)
- Kd [5]: > 30 µM (inactive)
- Kd [3]: 0.368 µM (active)
- Kd [6]: > 30 µM (inactive)
- Kd [7]: 0.345 µM (active)
- Kd [8]: > 30 µM (inactive)
- Kd [4]: > 30 µM (inactive)
